In patent publication US12428406B2 (PMV Pharmaceuticals, Inc., priority 2019, dated 2025):

Target: T1, p53 Y220C (Homo sapiens, UniProt P04637, Y220C)
T1 construct: The recombinant protein was a truncation mutant containing only amino acids 94-312 of p53; made in house; host or cells: E. coli
Assay: In vitro DNA binding activity assay (HTRF / TR-FRET): stabilization of p53 Y220C and increase of its DNA binding activity
Assay type: biochemical
Details: recombinant His-tagged p53 Y220C DNA binding domain (aa 94-312), biotin-labeled consensus DNA, incubated at 27° C. or 29° C. for 60 min
How it was run: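 Test compounds, diluted 3-fold in DMSO from 4.5 mM stocks, were incubated with bacterially expressed His-tagged p53 Y220C at room temperature for 15 min, and after a further step for 20 min. DNA binding was detected by time-resolved FRET between APC and europium labels. SC150 marks the concentration increasing binding by 50%.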

T1 sequence (P04637 94-312, change not shown): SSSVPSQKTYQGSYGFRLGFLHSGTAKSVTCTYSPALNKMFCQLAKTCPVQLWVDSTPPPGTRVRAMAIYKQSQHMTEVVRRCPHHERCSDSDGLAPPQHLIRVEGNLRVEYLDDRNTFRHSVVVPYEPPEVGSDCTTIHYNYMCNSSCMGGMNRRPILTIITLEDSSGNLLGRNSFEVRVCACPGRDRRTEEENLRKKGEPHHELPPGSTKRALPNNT

SC150 (concentration of the compound required to increase the DNA binding activity by 50%), + (+ = 0 μM ≤ SC150 < 0.05 μM):
COc1cc(S(=O)(=O)Nc2ccon2)ccc1NCC#Cc1cc2c(NC3CCN(CC(O)CO)CC3)cccc2n1CC(F)(F)F (stereo not drawn) [Compound 547A, 4-{[3-(4-{[1-(2,3-dihydroxypropyl)piperidin-4-yl]amino}-1-(2,2,2-trifluoroethyl)-1H-indol-2-yl)prop-2-yn-1-yl]amino}-3-methoxy-N-(1,2-oxazol-3-yl)benzene-1-sulfonamide]
COc1cc(S(N)(=O)=O)ccc1NCC#Cc1cc2c(NC3CCN(C[C@H](O)CO)CC3)cccc2n1CC(F)(F)F [Compound 549A, (rac)-4-({3-[4-({1-[2,3-dihydroxypropyl]piperidin-4-yl}amino)-1-(2,2,2-trifluoroethyl)-1H-indol-2-yl]prop-2-yn-1-yl}amino)-3-methoxybenzene-1-sulfonamide]
COc1cc(S(N)(=O)=O)ccc1NCC#Cc1cc2c(NC3CCN(C[C@@H](O)CO)CC3)cccc2n1CC(F)(F)F [Compound 550A, (rac)-4-({3-[4-({1-[2,3-dihydroxypropyl]piperidin-4-yl}amino)-1-(2,2,2-trifluoroethyl)-1H-indol-2-yl]prop-2-yn-1-yl}amino)-3-methoxybenzene-1-sulfonamide]
COc1cc(S(=O)(=O)NC2CCOCC2)ccc1NCC#Cc1cc2c(NC3CCN(CC(O)CO)CC3)cccc2n1CC(F)(F)F (stereo not drawn) [Compound 552A, 4-{[3-(4-{[1-(2,3-dihydroxypropyl)piperidin-4-yl]amino}-1-(2,2,2-trifluoroethyl)-1H-indol-2-yl)prop-2-yn-1-yl]amino}-3-methoxy-N-(oxan-4-yl) benzene-1-sulfonamide]
COc1cc(S(=O)(=O)N(C)CCO)ccc1NCC#Cc1cc2c(NC3CCN(CC(O)CO)CC3)cccc2n1CC(F)(F)F (stereo not drawn) [Compound 553A, 4-{[3-(4-{[1-(2,3-dihydroxypropyl)piperidin-4-yl]amino}-1-(2,2,2-trifluoroethyl)-1H-indol-2-yl)prop-2-yn-1-yl]amino}-N-(2-hydroxyethyl)-3-methoxy-N-methylbenzene-1-sulfonamide]
COc1cc(C(C)(C)C#N)ncc1NCC#Cc1cc2c(NC3CCN(CC(O)CO)CC3)cccc2n1CC(F)(F)F (stereo not drawn) [Compound 554A, 2-(5-{[3-(4-{[1-(2,3-dihydroxypropyl)piperidin-4-yl]amino}-1-(2,2,2-trifluoroethyl)-1H-indol-2-yl)prop-2-yn-1-yl]amino}-4-methoxypyridin-2-yl)-2-methylpropanenitrile]
COc1cc(S(=O)(=O)N(C)CCO)ccc1NCC#Cc1cc2c(NC3CCN(C4CCOCC4)CC3)cccc2n1CC(F)(F)F [Compound 555A, N-(2-hydroxyethyl)-3-methoxy-N-methyl-4-{[3-(4-{[1-(oxan-4-yl)piperidin-4-yl]amino}-1-(2,2,2-trifluoroethyl)-1H-indol-2-yl)prop-2-yn-1-yl]amino}benzene-1-sulfonamide]
COc1cc(S(C)(=O)=O)ccc1NCC#Cc1cc2c(NC3CCN(C[C@@H](O)CO)CC3)cccc2n1CC(F)(F)F [Compound 557A, (2R)-3-{4-[(2-{3-[(4-methanesulfonyl-2-methoxyphenyl)amino]prop-1-yn-1-yl}-1-(2,2,2-trifluoroethyl)-1H-indol-4-yl)amino]piperidin-1-yl}propane-1,2-diol]
COc1cc(S(C)(=O)=O)ccc1NCC#Cc1cc2c(NC3CCN(C[C@H](O)CO)CC3)cccc2n1CC(F)(F)F [Compound 558A, (2S)-3-{4-[(2-{3-[(4-methanesulfonyl-2-methoxyphenyl)amino]prop-1-yn-1-yl}-1-(2,2,2-trifluoroethyl)-1H-indol-4-yl)amino]piperidin-1-yl}propane-1,2-diol]
COc1cc(S(=O)(=O)N2CCN(C)CC2)ccc1NCC#Cc1cc2c(NC3CCN(CC(O)CO)CC3)cccc2n1CC(F)(F)F (stereo not drawn) [Compound 559A, 3-[4-({2-[3-({2-methoxy-4-[(4-methylpiperazin-1-yl)sulfonyl]phenyl}amino)prop-1-yn-1-yl]-1-(2,2,2-trifluoroethyl)-1H-indol-4-yl}amino)piperidin-1-yl]propane-1,2-diol]
COc1cc(S(N)(=O)=O)ccc1NCC#Cc1cc2c(NC3CCN(C[C@@H]4COC(=O)O4)CC3)cccc2n1CC(F)(F)F [Compound 562A, 3-methoxy-4-[(3-{4-[(1-{[(4R)-2-oxo-1,3-dioxolan-4-yl]methyl}piperidin-4-yl)amino]-1-(2,2,2-trifluoroethyl)-1H-indol-2-yl}prop-2-yn-1-yl)amino]benzene-1-sulfonamide]
COc1cc(S(C)(=O)=O)ccc1NCC#Cc1cc2c(NC3CCN(C[C@@H]4COC(=O)O4)CC3)cccc2n1CC(F)(F)F [Compound 563A, (4R)-4-({4-[(2-{3-[(4-methanesulfonyl-2-methoxyphenyl)amino]prop-1-yn-1-yl}-1-(2,2,2-trifluoroethyl)-1H-indol-4-yl)amino]piperidin-1-yl}methyl)-1,3-dioxolan-2-one]
COc1cc(S(=O)(=O)N(C)C)ccc1NCC#Cc1cc2c(NC3CCN(CC(O)CO)CC3)cccc2n1CC(F)(F)F (stereo not drawn) [Compound 564A, 4-{[3-(4-{[1-(2,3-dihydroxypropyl)piperidin-4-yl]amino}-1-(2,2,2-trifluoroethyl)-1H-indol-2-yl)prop-2-yn-1-yl]amino}-3-methoxy-N,N-dimethylbenzene-1-sulfonamide]
COc1cc(S(C)(=O)=O)ccc1NCC#Cc1cc2c(NC3CCN(CCOC(C)=O)CC3)cccc2n1CC(F)(F)F [Compound 565A, 2-{4-[(2-{3-[(4-methanesulfonyl-2-methoxyphenyl)amino]prop-1-yn-1-yl}-1-(2,2,2-trifluoroethyl)-1H-indol-4-yl)amino]piperidin-1-yl}EtOAc]
COc1cc(S(C)(=O)=O)ccc1NCC#Cc1cc2c(NC3CCN(C[C@@H]4COC(C)(C)O4)CC3)cccc2n1CC(F)(F)F [Compound 566A, N-(1-{[(4R)-2,2-dimethyl-1,3-dioxolan-4-yl]methyl}piperidin-4-yl)-2-{3-[(4-methanesulfonyl-2-methoxyphenyl)amino]prop-1-yn-1-yl}-1-(2,2,2-trifluoroethyl)-1H-indol-4-amine]
